Values joined by “and” are separate entries in the source; they are usually repeats but may differ in a detail not shown here. Equal entries are not always repeated. Active and inactive are the calls of the source. Rule as the data show it: active = IC50 below about 9 µM; inactive = the rest.
Molecular target: Tyrosine-protein kinase JAK2 (Homo sapiens) (UniProt O60674)
Test: JAK2V617F project follow-up: kinase, reporter, cytotoxicity – HEL and Ba/F3 cells, late-stage follow-up (AID 2165)
Details: JAK2V617F panel: kinase, IRF1 reporter

Sequence of Tyrosine-protein kinase JAK2 (Homo sapiens) (O60674 whole entry, looked up, change not shown): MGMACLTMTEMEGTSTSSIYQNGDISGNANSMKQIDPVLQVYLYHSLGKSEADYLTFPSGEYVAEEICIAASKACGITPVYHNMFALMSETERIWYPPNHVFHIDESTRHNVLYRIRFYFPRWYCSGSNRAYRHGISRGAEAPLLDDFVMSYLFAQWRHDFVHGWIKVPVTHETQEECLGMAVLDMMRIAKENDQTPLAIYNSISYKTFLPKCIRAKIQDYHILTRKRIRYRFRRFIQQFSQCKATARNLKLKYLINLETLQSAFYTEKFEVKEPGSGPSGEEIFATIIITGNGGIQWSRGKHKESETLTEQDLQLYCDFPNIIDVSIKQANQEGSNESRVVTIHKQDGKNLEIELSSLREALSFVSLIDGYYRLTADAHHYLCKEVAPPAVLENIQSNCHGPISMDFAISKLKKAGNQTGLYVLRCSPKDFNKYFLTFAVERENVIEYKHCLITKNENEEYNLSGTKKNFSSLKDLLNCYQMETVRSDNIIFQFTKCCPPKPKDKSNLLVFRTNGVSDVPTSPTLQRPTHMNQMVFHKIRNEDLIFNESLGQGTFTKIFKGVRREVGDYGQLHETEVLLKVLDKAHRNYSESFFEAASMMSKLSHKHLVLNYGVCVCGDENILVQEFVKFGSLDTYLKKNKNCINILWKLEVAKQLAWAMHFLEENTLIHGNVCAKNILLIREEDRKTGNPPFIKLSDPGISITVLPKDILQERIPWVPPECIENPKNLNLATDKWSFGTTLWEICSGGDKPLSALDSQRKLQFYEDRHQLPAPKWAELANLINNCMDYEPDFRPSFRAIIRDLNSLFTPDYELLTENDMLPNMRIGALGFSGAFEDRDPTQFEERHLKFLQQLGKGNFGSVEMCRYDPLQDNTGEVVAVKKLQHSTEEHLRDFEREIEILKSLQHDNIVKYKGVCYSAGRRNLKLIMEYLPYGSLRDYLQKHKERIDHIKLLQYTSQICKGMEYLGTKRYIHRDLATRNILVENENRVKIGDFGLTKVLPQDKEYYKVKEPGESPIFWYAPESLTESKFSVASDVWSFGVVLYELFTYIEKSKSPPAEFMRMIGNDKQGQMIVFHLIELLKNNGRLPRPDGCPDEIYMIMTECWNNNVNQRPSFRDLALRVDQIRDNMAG

Row | SMILES | IC50 (Ba/F3, irf1 reporter) | IC50 (HEL, irf1 reporter) | IC50 (JAK2V617F)
1 | COc1ccccc1/C=C/C(=O)c1c2c(c(C)[nH]c1=O)CCCC2 | > 40 µM (inactive) | 1.3 µM | 1.27 µM
2 | c1ccc2c(CN3CCCCCC3)c[nH]c2c1 | 14.3 µM | 15.9 µM | –
3 | CC(C)[C@@H](CO)Nc1nc(Nc2cccc(Cl)c2)c2ncn(C(C)C)c2n1 | 0.84 µM | 1.13 µM | 0.91 µM
4 | CN(c1ccccc1)S(=O)(=O)c1cccc(C(=O)NCCc2ccc(O)c(O)c2)c1 | 3.02 µM | 2.97 µM | –
5 | N#C/C(=C\c1ccc(O)c(O)c1)C(=O)NCCc1ccccc1 | 0.2 µM | 5.15 µM | 0.79 µM
6 | O=C(OCn1ncc(Cl)c(Cl)c1=O)c1ccccc1Cl | 4.03 µM | 4.45 µM | –
7 | O=C1C=CC(=O)N1CCNc1ncc(C(F)(F)F)cc1Cl | 0.699 µM | 9.81 µM | –
8 | CCS(=O)(=O)c1ccc(O)c(NC(=O)COc2cccc(C)c2)c1 | – | – | > 40 µM (inactive)
9 | CC(C)C1C(C#N)=C(N)Oc2n[nH]c(-c3ccc4ccccc4c3)c21 (centres undefined) | 4.7 µM | 16.1 µM | –
10 | O=C(NCCc1cccnc1)C1CCC(=O)N(CCc2cccc(F)c2)C1 (centres undefined) | – | > 40 µM (inactive) | > 40 µM (inactive)
11 | Cc1cccc(CS(=O)(=O)c2nnc([C@H](Cc3ccccc3)NC(=O)OC(C)(C)C)o2)c1 | 1.39 µM | 11.6 µM | –
12 | CCCn1c(CC)nc([N+](=O)[O-])c1S(=O)(=O)c1ccccc1 | 4.37 µM | 4.36 µM | –
13 | COc1ccccc1C(C[N+](=O)[O-])c1c(N)n(C)c(=O)n(C)c1=O (centres undefined) | 6.82 µM | 17 µM | –
14 | O=C(Nc1cccc(NC(=O)c2cccs2)c1)c1ccc([N+](=O)[O-])o1 | 4.5 µM | 3.31 µM | –
15 | CCN(CC)S(=O)(=O)c1cccc(-n2c(O)c(C=Nc3ccccc3C(=O)O)c3ccccc3c2=O)c1 | > 40 µM (inactive) | > 40 µM (inactive) | –
16 | Oc1ccccc1OCCOc1ccccc1OCCOc1ccccc1O | 6.74 µM | 15.9 µM | –
17 | COc1cccc(/C=N/NC(=O)c2[nH]c(C)c(C(=O)N/N=C/c3cccc(OC)c3O)c2C)c1O | 19.8 µM | 9.67 µM | –
18 | Cc1ccc(C)c(Sc2ccc(NC(=O)CCl)cc2)c1 | 2.19 µM | 18 µM | –
19 | CCOc1ccc(Nc2nc(N)nc(CCl)n2)cc1 | 11.2 µM | 0.452 µM | –
20 | COc1ccc(Cl)cc1NC(=O)NC(C)c1ccncc1 (centres undefined) | – | > 40 µM (inactive) | > 40 µM (inactive)
21 | CCCc1nc2ccccc2c(=O)n1/N=C/c1ccc(O)c(O)c1 | 2.13 µM | 13.1 µM | –
22 | COc1cc2ncnc(Nc3cccc(Br)c3)c2cc1OC | 1.31 µM | 3.16 µM | 4.94 µM

Row | SMILES | IC50 (Ba/F3, irf1 reporter) | IC50 (HEL, irf1 reporter) | IC50 (JAK2V617F)
23 | CCc1cccc(Nc2ncnc3cc(OCCOC)c(OCCOC)cc23)c1 | – | > 40 µM (inactive) | > 40 µM (inactive)
24 | Cc1ccccc1CS(=O)(=O)c1nnc([C@H](CC(C)C)NC(=O)OC(C)(C)C)o1 | 1.96 µM | 12.1 µM | –
25 | Cc1[nH]c(=O)c(C(=O)/C=C/c2ccccc2)c2c1CCCC2 | > 40 µM (inactive) | 2.03 µM | 1.15 µM
26 | COC(=O)/C=C/c1ccc(OC(=O)OC)c(OC(=O)OC)c1 | 12.6 µM | 27.7 µM | –
27 | CC(C)(C)c1cc(NC(=O)CCl)n(-c2ccccc2)n1 | 8.46 µM | 9.96 µM | –
28 | O=C(CCl)NCc1cc(-c2ccc(Cl)cc2)no1 | 5.56 µM | 7.68 µM | –
29 | O=S(=O)(c1cnc(Cl)c(Cl)c1)N1CCc2ccccc21 | 6.39 µM | > 40 µM (inactive) | –
30 | O=C1C=C(Nc2ccc(O)cc2)C(=O)c2ccccc21 | 7.94 µM | 34.7 µM | –
31 | CCCC(=O)N(C1CC(C)C(C#N)(C#N)C1(C#N)C#N)N(C)C (centres undefined) | 0.452 µM | 5.75 µM | –
32 | Cc1ccccc1CS(=O)(=O)c1nnc([C@H](Cc2ccccc2)NC(=O)OC(C)(C)C)o1 | 1.56 µM | 13.5 µM | –
33 | C#CCSc1nsc(SCC#C)c1C#N | 6.71 µM | > 40 µM (inactive) | –
34 | COc1ccc(-c2cnc3c(c2)CCC3(C#N)C#N)cc1 | 14.4 µM | 10.4 µM | –
35 | Cc1ccc(O)c(NC(=O)COc2cccc3ccccc23)c1 | – | – | 2.34 µM
36 | Cc1cccc(NC(=O)COc2cccc(C)c2)c1 | – | – | > 40 µM (inactive)
37 | O=C(CSc1nnnn1-c1ccc(F)cc1)c1ccc(O)c(O)c1 | 12.4 µM | 16.5 µM | –
38 | COc1cc2c(cc1OC)-c1cc(N3CCCc4ccccc43)nc(=O)n1CC2 | > 40 µM (inactive) | > 40 µM (inactive) | –
39 | Cc1ccc(Cn2ccsc2=NC(=O)CCl)cc1 | 6.74 µM | 3.11 µM | –
40 | Cc1ccc(O)c(NC(=O)COc2cc(C)c(Cl)c(C)c2)c1 | – | – | > 40 µM (inactive)
41 | COc1cc2ncnc(Nc3ccccc3)c2cc1OC | – | 5.92 µM | > 40 µM (inactive)
42 | CCC(C)[C@@H](NC(=O)OC(C)(C)C)c1nnc(S(=O)(=O)Cc2cccc(C)c2)o1 (some centres undefined) | 0.24 µM | 21.7 µM | –
43 | O=C(C=Cc1ccccc1F)c1c(-c2ccccc2)c2ccccc2[nH]c1=O | 0.39 µM | 0.39 µM | 0.39 µM
44 | CCCCn1c(=N)n(CC(=O)c2ccc(Br)s2)c2ccccc21 | 3.61 µM | 9.86 µM | –

Row | SMILES | IC50 (Ba/F3, irf1 reporter) | IC50 (HEL, irf1 reporter) | IC50 (JAK2V617F)
45 | COc1ccccc1-c1nnc(Sc2nc([N+](=O)[O-])nn2C)o1 | 35.5 µM | 13.6 µM | –
46 | Cc1cc2ncc(-c3ccc(O)c(O)c3)nc2cc1C | 0.104 µM | 3.19 µM | 0.84 µM
47 | N#C/C(=C\c1ccc(O)c(O)c1)C(=O)NCCCc1ccccc1 | 6.03 µM | 16.1 µM | –
48 | Cc1cccc(OCC(=O)Nc2ccc(O)cc2)c1 | – | – | > 40 µM (inactive)
49 | Cc1nc2c(=O)n(C)c(=O)n(C)c2nc1Cl | 1.97 µM | 15.7 µM | –
50 | Cc1cccc(OCC(=O)Nc2ccccc2F)c1 | – | > 40 µM (inactive) | > 40 µM (inactive)
51 | CC1CCN(CCCNC(=O)c2cc3c(Cl)nc4ccccc4c3s2)CC1 | 9.98 µM | > 40 µM (inactive) | –
52 | Cc1ccc(O)c(NC(=O)COc2ccc(I)cc2)c1 | – | – | 0.0268 µM
53 | COc1cc2ncnc(Sc3ccc(Cl)cc3)c2cc1OC | – | > 40 µM (inactive) | > 40 µM (inactive)
54 | C=CCNc1ncnc2cc(OC)c(OC)cc12 | – | > 40 µM (inactive) | > 40 µM (inactive)
55 | CCCn1c(CN(C)Cc2ccccc2)nc2c1c(=O)n(C)c(=O)n2C | 6.43 µM | > 40 µM (inactive) | –
56 | O=C(C=C=Nc1ccccc1)C(=O)N=C=Cc1ccccc1 | 1.31 µM | 14.2 µM | –
57 | Cc1[nH]c(=O)c(C(=O)C=Cc2ccc(I)cc2)c2c1CCCC2 | 0.82 µM | 11.2 µM | > 40 µM (inactive)
58 | O=C1C=CCC(/C=C/c2ccccc2)O1 (centres undefined) | 7.41 µM | 2.05 µM | –
59 | Nc1nc(CCl)nc(Nc2ccc3ccccc3c2)n1 | 7.46 µM | 0.958 µM | –
60 | O=C(NC1C=CS(=O)(=O)C1)c1sc2ccccc2c1Cl (centres undefined) | 8.98 µM | > 40 µM (inactive) | –
61 | CCCOc1ccc(C(=O)C(CN2CCOCC2)c2ccccc2)cc1 (centres undefined) | > 40 µM (inactive) | 11.4 µM | –
62 | Cc1ccc(O)c(NC(=O)COc2ccc(Br)cc2)c1 | – | – | 0.0327 µM
63 | Cc1[nH]c(=O)c(C(=O)/C=C/c2ccccc2F)c2c1CCCC2 | 6.42 µM and 1.07 µM | 3.87 µM and 0.79 µM | 0.45 µM
64 | Oc1ccc(Cl)cc1N=Cc1sc2ccccc2c1Cl | 3.42 µM | 5.53 µM | –
65 | Cc1oc2c(O)c(O)ccc2c(=O)c1-c1cnn(-c2ccccc2)c1 | 12.8 µM | 8.52 µM | –
66 | O=S(=O)(c1cccs1)N1CCN(c2ccc(O)cc2)CC1 | 7.02 µM | 20.9 µM | –

Row | SMILES | IC50 (Ba/F3, irf1 reporter) | IC50 (HEL, irf1 reporter) | IC50 (JAK2V617F)
67 | COc1ccccc1N(C(=O)CCl)c1cn(C(C)=O)c2ccccc12 | 2.17 µM | 9.3 µM | –
68 | O=C(CCl)N=c1sccn1Cc1ccccc1Cl | 9.38 µM | 1.62 µM | –
69 | COc1ccc([N+](=O)[O-])c(S(=O)(=O)c2ccc(Cl)cc2)n1 | 0.395 µM | 10.4 µM | –
70 | COc1cccc(N(C(=O)CCl)C(C(=O)NCCc2ccccc2)c2cccs2)c1 (centres undefined) | 2.76 µM | 1.04 µM | –
71 | COc1ccccc1OCC(=O)Nc1cc(C)ccc1O | – | – | 0.0392 µM
72 | CCC(C)Nc1ncnc2cc(OC)c(OC)cc12 (centres undefined) | – | > 40 µM (inactive) | 1.79 µM
73 | COC1(OC)C(/C=C/c2ccc(Cl)cc2)C(C#N)(C#N)C1(OC)OC (centres undefined) | 1.33 µM | 6.57 µM | –
74 | Cc1cccc(NC(=O)c2ccc([N+](=O)[O-])o2)c1 | 6.3 µM | 10.5 µM | –
75 | Cc1ccc2nc(C)cc(Nc3ccc([N+](=O)[O-])cc3)c2c1 | 3.43 µM | 5.98 µM | –
76 | Cc1cc(SCC(=O)N/N=C/c2ccc(O)c(O)c2)c(C)cc1Br | 2.02 µM | > 40 µM (inactive) | –
77 | COc1cc2ncnc(Sc3ccc(C)cc3)c2cc1OC | – | 4.55 µM | > 40 µM (inactive)
78 | COc1cc2ncc(-c3ccccc3)nc2cc1OC | > 40 µM (inactive) | 0.69 µM | > 40 µM (inactive)
79 | N#CC(C#N)=Cc1cc(O)c(O)c(I)c1 | 5.01 µM | 19.6 µM | 8.82 µM
80 | O=C(CCl)N=c1sccn1Cc1ccc(Cl)cc1Cl | 6.08 µM | 2.22 µM | –
81 | O=C(OCn1ncc(Cl)c(Cl)c1=O)c1ccc(F)cc1 | 1.94 µM | 8.04 µM | –
82 | O=S(=O)(c1cnc(Cl)c(Br)c1)N1CCc2ccccc21 | 6.61 µM | > 40 µM (inactive) | –
83 | Cc1nn2c(NCc3ccccn3)c3c(nc2c1-c1ccccc1)CCC3 | 10.7 µM | 9.49 µM | –
84 | Cc1cccc(N(Cc2ccccc2)C(=O)CCl)c1 | 1.13 µM | 4.76 µM | –
85 | CC(C)c1cc(C=C(C#N)C(=O)NCCCc2ccccc2)cc(C(C)C)c1O | 0.54 µM | 1.15 µM | 3.97 µM
86 | Cc1[nH]c2ccccc2c(=O)c1C(=O)/C=C/c1ccccc1 | > 40 µM (inactive) | 3.98 µM | –
87 | C/C(=C\c1ccccc1F)C(=O)c1c(C)cc(C)[nH]c1=O | > 40 µM (inactive) | 3.24 µM | > 40 µM (inactive)
